Source: the NIST ThermoML archive (doi:10.1016/j.tca.2016.09.005)
± gives the expanded uncertainty stated by the source.

Assay: xn = mol fraction of the nth substance listed
Details: 100 kPa, Liquid; for speed of sound: Frequency=3 MHz, Sing-around technique in a fixed-path interferometer; for mass density: Vibrating tube method

OCCCO [propan-1,3-diol] + CO
Details	mass density, 303.15 K [kg/m3]	mass density, 313.15 K [kg/m3]	speed of sound, 303.15 K [m/s]	speed of sound, 313.15 K [m/s]
x2 = 0	1046.36 ± 1.2	1040.07 ± 1.2	1613.6 ± 2.6	1591.1 ± 2.6
x2 = 0.05	1039.98 ± 1.2	1033.62 ± 1.2	1599.5 ± 2.6	1576.8 ± 2.6
x2 = 0.0996	1033.18 ± 1.1	1026.76 ± 1.1	1582.6 ± 2.5	1559.7 ± 2.5
x2 = 0.1503	1025.88 ± 1.1	1019.37 ± 1.1	1566.8 ± 2.5	1543.7 ± 2.5
x2 = 0.2	1018.34 ± 1.1	1011.73 ± 1.1	1549.2 ± 2.4	1525.8 ± 2.4
x2 = 0.2502	1010.26 ± 1	1003.55 ± 1	1530.8 ± 2.3	1507.1 ± 2.3
x2 = 0.2998	1001.72 ± 1	994.98 ± 1	1511.9 ± 2.3	1487.9 ± 2.3
x2 = 0.3491	992.64 ± 0.99	985.81 ± 0.99	1490.9 ± 2.2	1466.6 ± 2.2
x2 = 0.3998	982.76 ± 0.97	975.82 ± 0.97	1469.3 ± 2.2	1444.7 ± 2.2
x2 = 0.4497	972.34 ± 0.96	965.29 ± 0.96	1446.3 ± 2.1	1421.4 ± 2.1
x2 = 0.5	961.17 ± 0.95	953.99 ± 0.95	1422.3 ± 2.1	1397 ± 2.1
x2 = 0.5501	949.29 ± 0.94	941.97 ± 0.94	1397.7 ± 2	1371.9 ± 2
x2 = 0.5994	936.28 ± 0.94	928.82 ± 0.94	1369.7 ± 2	1343.4 ± 2
x2 = 0.6501	921.74 ± 0.93	914.15 ± 0.93	1340.1 ± 2	1313.3 ± 1.9
x2 = 0.6998	906.94 ± 0.93	899.12 ± 0.93	1310.7 ± 1.9	1283.3 ± 1.9
x2 = 0.7499	890.37 ± 0.93	882.34 ± 0.93	1278.5 ± 1.9	1250.5 ± 1.9
x2 = 0.8	873.11 ± 0.93	864.86 ± 0.93	1246.1 ± 1.8	1217.4 ± 1.8
x2 = 0.8501	853.06 ± 0.93	844.55 ± 0.93	1208.7 ± 1.8	1179.2 ± 1.8
x2 = 0.9	831.86 ± 0.94	823.05 ± 0.94	1171.3 ± 1.8	1140.9 ± 1.8
x2 = 0.9501	808.72 ± 0.94	799.59 ± 0.94	1132.1 ± 1.8	1100.8 ± 1.8
